IC50 and melting point data for 31 compounds are collected here from patent publication US8188078B2 (Sanofi-Aventis, priority 2007, dated 2012).

The target in one series is T1, c-MET (Homo sapiens, UniProt P08581).
T1 construct: The recombinant DNA His-Tev-MET (956-1390) in pFastBac(Invitrogen); His (N, cleaved yes); Tev (TEV protease site) (N, cleaved yes); made in house; host or cells: SF21 insect cells (baculovirus, pFastBac)
In words: Test A: HTRF Met test in 96-well format. The series is classed as biochemical. An outline of the steps:
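Percent inhibition was calculated from the HTRF 665/620 ratio, using Eu-cryptate anti-phosphotyrosine PT66 plus streptavidin-XL added with EDTA and read after 2 h. The reaction ran 10 min at room temperature: 5 nM tag-cleaved MET (956–1390), 10 µM ATP, 1 µg/ml poly-GAT, and compound from 0.17 nM to 10 µM in 3% DMSO.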

T1 sequence (P08581 956-1390): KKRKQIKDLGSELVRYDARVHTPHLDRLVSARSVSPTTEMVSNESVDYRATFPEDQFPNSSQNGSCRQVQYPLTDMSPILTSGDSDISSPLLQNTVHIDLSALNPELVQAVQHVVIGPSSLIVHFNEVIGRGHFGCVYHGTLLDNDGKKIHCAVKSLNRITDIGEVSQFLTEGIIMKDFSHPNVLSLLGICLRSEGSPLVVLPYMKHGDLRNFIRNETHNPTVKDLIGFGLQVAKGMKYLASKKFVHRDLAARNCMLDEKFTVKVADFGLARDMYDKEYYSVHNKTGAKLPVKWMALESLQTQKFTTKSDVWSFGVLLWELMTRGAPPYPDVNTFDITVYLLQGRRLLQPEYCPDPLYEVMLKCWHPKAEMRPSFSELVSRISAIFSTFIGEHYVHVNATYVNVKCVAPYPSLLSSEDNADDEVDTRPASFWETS

Take `CC(Oc1ccc2nc(NC(=O)NCCN3CCOCC3)[nH]c2c1)c1c(Cl)cccc1Cl` (stereo not drawn) [Example 2, 1-{6-[1-(2,6-dichlorophenyl)ethoxy]-1H-benzimidazol-2-yl}-3-(2-morpholin-4-ylethyl)urea]: the melting point fell in the range of 215 to 220 °C. The compound also displayed an IC50 against c-MET of less than 100 nM. Take `CC(Oc1ccc2nc(NC(=O)NCCN3CCOCC3)[nH]c2c1)c1cc(F)ccc1Cl` (stereo not drawn) [Example 3, 1-{6-[1-(2-chloro-5-fluorophenyl)ethoxy]-1H-benzimidazol-2-yl}-3-(2-morpholin-4-ylethyl)urea]: the melting point worked out at 210 °C. On c-MET, this compound registered an IC50 of less than 100 nM.

As for `CC(Oc1cc2[nH]c(NC(=O)NCCN3CCOCC3)nc2cc1F)c1c(Cl)cccc1Cl` (stereo not drawn) [Example 5, 1-{6-[1-(2,6-dichlorophenyl)ethoxy]-5-fluoro-1H-benzimidazol-2-yl}-3-(2-morpholin-4-ylethyl)urea], the melting point lay in the range of 210 to 216 °C. Further, at c-MET, the IC50 is less than 100 nM. As for `O=C(NCCN1CCOCC1)Nc1nc2ccc(OCc3c(Cl)cccc3Cl)cc2s1` [Example 10, 1-{6-[(2,6-dichlorobenzyl)oxy]-1,3-benzothiazol-2-yl}-3-(2-morpholin-4-ylethyl)urea], the melting point was 268 to 271 °C. On c-MET, this compound registered a concentration for half-maximal inhibition (IC50) of less than 100 nM. Take `CC(Oc1ccc2nc(NC(=O)NCCN3CCOCC3)sc2c1)c1c(Cl)cccc1Cl` (stereo not drawn) [Example 17, 1-{6-[1-(2,6-dichlorophenyl)ethoxy]-1,3-benzothiazol-2-yl}-3-(2-morpholin-4-ylethyl)urea]: the melting point lay within 165 to 168 °C. Besides, the IC50 against c-MET was less than 100 nM. On to `O=C(NCCN1CCOCC1)Nc1nc2cc(F)c(OCc3c(Cl)cccc3Cl)cc2s1` [Example 21, 1-{6-[(2,6-dichlorobenzyl)oxy]-5-fluoro-1,3-benzothiazol-2-yl}-3-(2-morpholin-4-ylethyl)urea], for which the melting point was 206 °C. At c-MET, this compound displayed an IC50 of less than 100 nM. Regarding `CC(Oc1ccc2nc(NC(=O)NCCN3CCOCC3)sc2c1)c1c(Cl)ccc(F)c1Cl` (stereo not drawn) [Example 24, 1-{6-[1-(2,6-dichloro-3-fluorophenyl)ethoxy]-1,3-benzothiazol-2-yl}-3-(2-morpholin-4-ylethyl)urea], the melting point was determined as 110 °C. Further, the IC50 at c-MET is less than 100 nM. `Cc1ccc(F)c(C(C)Oc2ccc3nc(NC(=O)NCCN4CCOCC4)sc3c2)c1Cl` (stereo not drawn) [Example 28, 1-{6-[1-(2-chloro-6-fluoro-3-methylphenyl)ethoxy]-1,3-benzothiazol-2-yl}-3-(2-morpholin-4-ylethyl)urea] showed a melting point of 165 to 170 °C. The IC50 against c-MET was less than 100 nM.

`CC(Oc1cc2sc(NC(=O)NCCN3CCOCC3)nc2cc1F)c1c(Cl)cccc1Cl` (stereo not drawn) [Example 29, 1-{6-[1-(2,6-dichlorophenyl)ethoxy]-5-fluoro-1,3-benzothiazol-2-yl}-3-(2-morpholin-4-ylethyl)urea] showed a melting point of 200 to 205 °C. Moreover, the IC50 against c-MET is less than 100 nM. With `CC(Oc1cc2sc(NC(=O)NCCN3CCOCC3)nc2cc1F)c1c(Cl)ccc(F)c1Cl` (stereo not drawn) [Example 31, 1-{6-[1-(2,6-dichloro-3-fluorophenyl)ethoxy]-5-fluoro-1,3-benzothiazol-2-yl}-3-(2-morpholin-4-ylethyl)urea], the melting point fell in the range of 226 to 228 °C. For the same compound, on c-MET, the half-inhibitory concentration (IC50) was less than 100 nM.

Consider `CC(Oc1ccc2nc(NC(=O)NCCN3CCC(Cc4ccccc4)CC3)sc2c1)c1c(Cl)ccc(F)c1Cl` (stereo not drawn) [Example 34, 1-[2-(4-benzylpiperidin-1-yl)ethyl]-3-{6-[1-(2,6-dichloro-3-fluorophenyl)ethoxy]-1,3-benzothiazol-2-yl}urea], for which the melting point was in the range of 133 to 139 °C. On c-MET, this compound showed an IC50 of less than 100 nM. With `CC(Oc1ccc2nc(NC(=O)NCCN3CCN(Cc4ccccc4)CC3)sc2c1)c1c(Cl)ccc(F)c1Cl` (stereo not drawn) [Example 35, 1-[2-(4-benzylpiperazin-1-yl)ethyl]-3-{6-[1-(2,6-dichloro-3-fluorophenyl)ethoxy]-1,3-benzothiazol-2-yl}urea], the melting point lay within 125 to 139 °C. At c-MET, this compound came in with a 50% inhibitory concentration (IC50) of less than 100 nM. `CC(Oc1ccc2nc(NC(=O)NCCN3CCN(C(=O)OC(C)(C)C)CC3)sc2c1)c1c(Cl)ccc(F)c1Cl` (stereo not drawn) [Example 36, 1,1-dimethylethyl 4-{2-[({6-[1-(2,6-dichloro-3-fluorophenyl)ethoxy]-1,3-benzothiazol-2-yl}carbamoyl)amino]ethyl}piperazine-1-carboxylate]: the melting point is 87 °C. Besides, on c-MET, the IC50 was less than 100 nM. For `CC(Oc1ccc2nc(NC(=O)NCCN3CCNCC3)sc2c1)c1c(Cl)ccc(F)c1Cl.O=C(O)C(F)(F)F` (stereo not drawn) [Example 37, 1-{6-[1-(2,6-Dichloro-3-fluorophenyl)ethoxy]-1,3-benzothiazol-2-yl}-3-(2-piperazin-1-ylethyl)urea trifluoroacetate], the melting point was in the range of 138 to 169 °C. Moreover, the concentration for half-maximal inhibition (IC50) at c-MET was in the range of 100 to 10000 nM. In turn, `CC(Oc1ccc2nc(NC(=O)NCCC3CCCN3C)sc2c1)c1c(Cl)ccc(F)c1Cl` (stereo not drawn) [Example 53, 1-{6-[1-(2,6-dichloro-3-fluorophenyl)ethoxy]-1,3-benzothiazol-2-yl}-3-[2-(1-methylpyrrolidin-2-yl)ethyl]urea] registered an IC50 at c-MET of less than 100 nM. For the compound `CC(Oc1ccc2nc(NC(=O)NCCN3CCCCCC3)sc2c1)c1c(Cl)ccc(F)c1Cl` (stereo not drawn) [Example 54, 1-(2-azepan-1-ylethyl)-3-{6-[1-(2,6-dichloro-3-fluorophenyl)ethoxy]-1,3-benzothiazol-2-yl}urea], the 50% inhibitory concentration (IC50) on c-MET was less than 100 nM. Turning to `CC(Oc1ccc2nc(NC(=O)NCCN3CCN(C)CC3)sc2c1)c1c(Cl)ccc(F)c1Cl` (stereo not drawn) [Example 55, 1-{6-[1-(2,6-dichloro-3-fluorophenyl)ethoxy]-1,3-benzothiazol-2-yl}-3-[2-(4-methylpiperazin-1-yl)ethyl]urea], the half-inhibitory concentration (IC50) on c-MET was less than 100 nM. At c-MET, `CC(Oc1ccc2nc(NC(=O)NCCN3C(C)CCCC3C)sc2c1)c1c(Cl)ccc(F)c1Cl` (stereo not drawn) [Example 56, 1-{6-[1-(2,6-dichloro-3-fluorophenyl)ethoxy]-1,3-benzothiazol-2-yl}-3-[2-(2,6-dimethylpiperidin-1-yl)ethyl]urea] showed a half-maximal inhibitory concentration (IC50) of less than 100 nM. As for `CC(Oc1ccc2nc(NC(=O)NCc3ccncc3)sc2c1)c1c(Cl)ccc(F)c1Cl` (stereo not drawn) [Example 57, 1-{6-[1-(2,6-dichloro-3-fluorophenyl)ethoxy]-1,3-benzothiazol-2-yl}-3-(pyridin-4-ylmethyl)urea], on c-MET, the 50% inhibitory concentration (IC50) is less than 100 nM. In turn, `CC(Oc1ccc2nc(NC(=O)NCc3ccccn3)sc2c1)c1c(Cl)ccc(F)c1Cl` (stereo not drawn) [Example 58, 1-{6-[1-(2,6-dichloro-3-fluorophenyl)ethoxy]-1,3-benzothiazol-2-yl}-3-(pyridin-2-ylmethyl)urea] showed a 50% inhibitory concentration (IC50) on c-MET of less than 100 nM.

The compound `CC(Oc1ccc2nc(NC(=O)NCc3cccnc3)sc2c1)c1c(Cl)ccc(F)c1Cl` (stereo not drawn) [Example 59, 1-{6-[1-(2,6-dichloro-3-fluorophenyl)ethoxy]-1,3-benzothiazol-2-yl}-3-(pyridin-3-ylmethyl)urea] came in with an IC50 at c-MET of less than 100 nM.

For the compound `CC(Oc1ccc2nc(NC(=O)NCCN3CCOCC3)sc2c1)c1c(F)ccc(F)c1F` (stereo not drawn) [Example 60, 1-(2-morpholin-4-ylethyl)-3-{6-[1-(2,3,6-trifluorophenyl)ethoxy]-1,3-benzothiazol-2-yl}urea], the melting point stood at 187 °C. In addition, on c-MET, the IC50 is less than 100 nM.

Take `CC(Oc1ccc2nc(NC(=O)NCCN3CCOCC3)sc2c1)c1c(F)ccc(Cl)c1Cl` (stereo not drawn) [Example 61, 1-{6-[1-(2,3-dichloro-6-fluorophenyl)ethoxy]-1,3-benzothiazol-2-yl}-3-(2-morpholin-4-ylethyl)urea]: the melting point came to 200 °C. Moreover, on c-MET, the half-inhibitory concentration (IC50) was less than 100 nM.

Take `O=C(NCCN1CCOCC1)Nc1nc2ccc(OC(c3c(Cl)cccc3Cl)C(F)(F)F)cc2s1` (stereo not drawn) [Example 64, 1-{6-[1-(2,6-dichlorophenyl)-2,2,2-trifluoroethoxy]-1,3-benzothiazol-2-yl}-3-(2-morpholin-4-ylethyl)urea]: the melting point was 150 to 160 °C. Moreover, the concentration for half-maximal inhibition (IC50) against c-MET is less than 100 nM.

In turn, `CC(Oc1ccc2nc(NC(=O)CCCN3CCOCC3)sc2c1)c1c(Cl)ccc(F)c1Cl` (stereo not drawn) [Example 65, N-{6-[1-(2,6-dichloro-3-fluorophenyl)ethoxy]-1,3-benzothiazol-2-yl}-4-(morpholin-4-yl)butanamide] yielded a melting point of 141 to 145 °C. This compound also had an IC50 at c-MET of less than 100 nM.

On to `CC(Oc1ccc2nc(NC(=O)C3CC3)sc2c1)c1c(Cl)ccc(F)c1Cl` (stereo not drawn) [Example 66, N-{6-[1-(2,6-dichloro-3-fluorophenyl)ethoxy]-1,3-benzothiazol-2-yl}cyclopropanecarboxamide], for which the melting point lay in the range of 194 to 199 °C. The IC50 on c-MET was less than 100 nM. `CC(Oc1cc2sc(NC(=O)CCCN3CCCC3)nc2cc1F)c1c(Cl)ccc(F)c1Cl` (stereo not drawn) [Example 68, N-{6-[1-(2,6-dichloro-3-fluorophenyl)ethoxy]-5-fluoro-1,3-benzothiazol-2-yl}-4-(pyrrolidin-1-yl)butanamide]: the melting point fell in the range of 153 to 157 °C. Besides, the IC50 at c-MET is less than 100 nM. `CCN(CC)CCCOC(=O)Nc1nc2cc(F)c(OC(C)c3c(Cl)ccc(F)c3Cl)cc2s1` (stereo not drawn) [Example 70]: at c-MET, the IC50 was less than 100 nM. At c-MET, `CC(Oc1ccc2nc(NC(=O)OCCN3CCOCC3)sc2c1)c1c(Cl)ccc(F)c1Cl` (stereo not drawn) [Example 74] yielded an IC50 of less than 100 nM. On c-MET, `CC(Oc1cc2sc(NC(=O)NCCN3CCNC(=O)C3)nc2cc1F)c1c(Cl)ccc(F)c1Cl` (stereo not drawn) [Example 130, 1-{6-[1-(2,6-dichloro-3-fluorophenyl)ethoxy]-5-fluoro-1,3-benzothiazol-2-yl}-3-[2-(3-oxopiperazin-1-yl)ethyl]urea] had an IC50 of less than 100 nM. Compound “{6-[1-(2,6-dichloro-3-fluorophenyl)ethoxy]-5-fluoro-1,3-benzothiazol-2-yl}2-(pyrrolidin-1-yl)ethyl carbamate [Example 73]” showed an IC50 on c-MET of less than 100 nM.
